The results in this text go back to US9173882B2, “Polycyclic heteroaryl substituted triazoles useful as Axl inhibitors” (Rigel Pharmaceuticals, Inc., priority 2008, dated 2015).

pIC50: −log10 of the molar value.

The target of the first assay is T1, Axl (Homo sapiens, UniProt P30530).
T1 construct: endogenous in cells; host or cells: HeLa cells
T1 sequence (P30530 26-894): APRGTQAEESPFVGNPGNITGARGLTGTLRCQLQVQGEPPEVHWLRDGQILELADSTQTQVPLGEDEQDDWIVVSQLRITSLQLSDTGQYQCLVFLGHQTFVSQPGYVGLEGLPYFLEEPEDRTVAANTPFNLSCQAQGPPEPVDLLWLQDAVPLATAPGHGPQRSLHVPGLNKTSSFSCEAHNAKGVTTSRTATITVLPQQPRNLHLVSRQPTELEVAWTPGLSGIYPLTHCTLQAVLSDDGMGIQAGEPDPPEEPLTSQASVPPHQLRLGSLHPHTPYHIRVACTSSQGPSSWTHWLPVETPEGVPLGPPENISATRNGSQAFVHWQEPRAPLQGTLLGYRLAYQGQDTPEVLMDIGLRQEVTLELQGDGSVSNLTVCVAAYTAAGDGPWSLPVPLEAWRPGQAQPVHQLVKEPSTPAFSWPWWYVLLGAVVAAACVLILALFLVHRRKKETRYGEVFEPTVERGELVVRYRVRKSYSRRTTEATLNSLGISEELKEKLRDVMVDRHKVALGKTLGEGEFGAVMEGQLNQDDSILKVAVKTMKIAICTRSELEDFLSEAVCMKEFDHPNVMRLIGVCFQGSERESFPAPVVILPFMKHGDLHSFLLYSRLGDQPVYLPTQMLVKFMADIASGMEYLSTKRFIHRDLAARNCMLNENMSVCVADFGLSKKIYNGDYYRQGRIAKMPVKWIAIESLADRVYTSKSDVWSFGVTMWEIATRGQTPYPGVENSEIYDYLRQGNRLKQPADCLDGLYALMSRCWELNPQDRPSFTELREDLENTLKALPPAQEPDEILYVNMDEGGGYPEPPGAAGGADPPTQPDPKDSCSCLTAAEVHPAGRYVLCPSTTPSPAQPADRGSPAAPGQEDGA
The assay can be described thus: Phospho-Akt in-cell Western assay. The class given is cell-based. As to conditions: Hela cells, stimulated by Axl-antibody cross-linking, phospho-Akt chemiluminescence; Table 1, formula (Ia). Here is the method:
Phospho-Akt in-Cell Western Assay
The compounds of the invention were tested in the following assay for their ability to inhibit Axl activity.
• Cell culture plate: 96 well assay plate (Corning 3610), white, clear bottom, tissue-culture treated. • Cells: Hela cells. • Starvation medium: For Axl stimulation: 0.5% FCS (fetal calf serum) in DMEM, plus Axl/Fc (extracellular domain of AXL fused to imunoglobulin Fc region) (R&D, 154-AL) 500 ng/mL. • For EGF (epidermal growth factor) stimulation: 0.5% FCS in DMEM (Dulbecco's modified Eagles medium). • Poly-L-Lysine 0.01% solution (the working solution): 10 μg/ml, dilute In PBS (phosphate buffered saline). • Axl antibody cross-linking: • 1st: Mouse anti-Axl (R&D, MAB154). • 2nd: Biotin-SP-conjugated AffiniPure goat anti-mouse IgG (H+L) (Jackson ImmunoResearch #115-065-003). • Fixing buffer: 4% formaldehyde in PBS. • Wash buffer: 0.1% TritonX-100 in PBS. • Quenching buffer: 3% H2O2, 0.1% Azide in wash buffer, Azide and hydrogen peroxide (H2O2) are added fresh. • Blocking buffer: 5% BSA in TBST (tris buffered saline plus 0.1% Tween 20). • Primary antibody: Rabbit anti-human Phospho-Akt antibody (Cell Signaling 9271): 1×250 diluted in blocking buffer. • Secondary antibody: HRP (horse radish peroxidase)-conjugated Goat anti-Rabbit secondary, stock solution: Jackson ImmunoResearch (Goat anti-Rabbit HRP, #111-035-144) 1:1 diluted in glycerol, store at −20° C. The working solution: 1×2000 dilution of stock in blocking buffer. • Chemiluminescent working solution (Pierce, 37030): SuperSignal ELISA (enzyme linked immunosorbant assay) Pico Chemiluminescent substrate. • Crystal Violet solution: Stock: 2.5% Crystal violet in methanol, filtered and kept at ambient temperature. The working solution: dilute the stock 1:20 with PBS immediately before use. • 10% SDS: working solution: 5% SDS (sodium dodecylsulfate), diluted in PBS Methods: Day 1:
A 96 well TC (tissue culture treated) plate was coated with 10 μg/mL poly-L-Lysine at 37° C. for 30 min, washed twice with PBS, and air-dried for 5 minutes before cells were added. Hela cells were seeded at 10,000 cells/well and the cells were starved in 100 μL starvation medium containing Axl/Fc for 24 hrs.
The cells were pre-treated with test compounds by adding 100 μL of 2× test compound to the starvation medium on the cells. The cells were incubated at 37° C. for 1 hr before stimulation.
The cells were stimulated by Axl-antibody cross-linking as follows: A 5× 1st/2nd Axl antibody mixture was made (37.5 μg/mL 1st/100 μg/mL 2nd) in starvation medium and nutated at 4° C. with thorough mixing for 1-2 hours for clustering. The resulting mix was warmed to 37° C. 50 μL of 5× Axl 1st/2nd of antibody cluster was added to the cells and the cells were incubated at 37° C. for 5 min.
After 5 minutes stimulation, the plate was flicked to remove medium and the plate was tapped onto paper towels. Formaldehyde (4.0% in PBS, 100 μL) was added to fix the cells and the cells were incubated at ambient temperature for 20 min without shaking.
The cells were washed with a plate washer buffer to remove the formaldehyde solution. The plate was flicked to removed excess wash buffer and tapped onto paper towels. Quenching buffer (100 μL) was added to each well and the cells were incubated at ambient temperature for 20 minutes without shaking.
The cells were washed with a plate washer buffer to remove the quenching buffer. Blocking buffer (100 μL) was added and the cells were incubated at ambient temperature for at least an hour with gentle shaking.
The cells were washed with a plate washer buffer and diluted primary antibody (50 μL) was added to each well (blocking buffer was added to the negative control wells instead). The plates were incubated overnight at 4° C. with gentle shaking.
The wash buffer was removed, diluted secondary antibody (100 μL) was added, and the cells were incubated at ambient temperature for 1 hour with gentle shaking. […]
On to `CN(C)[C@H]1CCc2ccc(Nc3nc(N)n(-c4cc5c(nn4)-c4ccccc4CCC5)n3)cc2CC1` [Compound 31, 1-(6,7-dihydro-5H-benzo[6,7]cyclohepta[1,2-c]pyridazin-3-yl)-N^3-((7S)-7-(dimethylamino)-6,7,8,9-tetrahydro-5H-benzo[7]annulene-2-yl)-1H-1,2,4-triazole-3,5-diamine], for which the negative-log IC50 (pIC50) is above 6.00.

Compound `Nc1nc(Nc2ccc3c(c2)CC[C@@H](NC2CCC2)CC3)nn1-c1cc2c(nn1)-c1ccccc1CCC2` [Compound 32, 1-(6,7-dihydro-5H-benzo[6,7]cyclohepta[1,2-c]pyridazin-3-yl)-N^3-((7S)-7-(cyclobutylamino)-6,7,8,9-tetrahydro-5H-benzo[7]annulene-2-yl)-1H-1,2,4-triazole-3,5-diamine] gave a negative logarithm of the IC50 (pIC50) above 6.00.

Compound `CCC(CC)N[C@H]1CCc2ccc(Nc3nc(N)n(-c4cc5c(nn4)-c4ccccc4CCC5)n3)cc2CC1` [Compound 33, 1-(6,7-dihydro-5H-benzo[6,7]cyclohepta[1,2-c]pyridazin-3-yl)-N^3-((7S)-7-(3-pentylamino)-6,7,8,9-tetrahydro-5H-benzo[7]annulene-2-yl)-1H-1,2,4-triazole-3,5-diamine] showed a pIC50 above 6.00.

On to `CC(C)(C)CN[C@H]1CCc2ccc(Nc3nc(N)n(-c4cc5c(nn4)-c4ccccc4CCC5)n3)cc2CC1` [Compound 34, 1-(6,7-dihydro-5H-benzo[6,7]cyclohepta[1,2-c]pyridazin-3-yl)-N^3-((7S)-7-((2,2-dimethylpropyl)amino)-6,7,8,9-tetrahydro-5H-benzo[7]annulene-2-yl)-1H-1,2,4-triazole-3,5-diamine], for which the pIC50 is above 6.00.

In turn, `Nc1nc(Nc2ccc3c(c2)CC[C@@H](N(CC2CCCC2)CC2CCCC2)CC3)nn1-c1cc2c(nn1)-c1ccccc1CCC2` [Compound 35, 1-(6,7-dihydro-5H-benzo[6,7]cyclohepta[1,2-c]pyridazin-3-yl)-N^3-((7S)-7-(di(cyclopentylmethyl)amino)-6,7,8,9-tetrahydro-5H-benzo[7]annulene-2-yl)-1H-1,2,4-triazole-3,5-diamine] showed a pIC50 of 5.00 to 6.00.

In turn, `Nc1nc(Nc2ccc3c(c2)CC[C@@H](NCC2CCCC2)CC3)nn1-c1cc2c(nn1)-c1ccccc1CCC2` [Compound 36, 1-(6,7-dihydro-5H-benzo[6,7]cyclohepta[1,2-c]pyridazin-3-yl)-N^3-((7S)-7-((cyclopentylmethyl)amino)-6,7,8,9-tetrahydro-5H-benzo[7]annulene-2-yl)-1H-1,2,4-triazole-3,5-diamine] showed a pIC50 above 6.00.

In turn, `Nc1nc(Nc2ccc3c(c2)CC[C@@H](N(CC2CC4C=CC2C4)CC2CC4C=CC2C4)CC3)nn1-c1cc2c(nn1)-c1ccccc1CCC2` (stereo partly drawn) [Compound 37, 1-(6,7-dihydro-5H-benzo[6,7]cyclohepta[1,2-c]pyridazin-3-yl)-N^3-((7S)-7-(di(bicyclo[2.2.1]hept-2-en-5-ylmethyl)amino)-6,7,8,9-tetrahydro-5H-benzo[7]annulene-2-yl)-1H-1,2,4-triazole-3,5-diamine] showed a pIC50 of 5.00 to 6.00.

`Nc1nc(Nc2ccc3c(c2)CC[C@@H](NCC2CC4C=CC2C4)CC3)nn1-c1cc2c(nn1)-c1ccccc1CCC2` (stereo partly drawn) [Compound 38, 1-(6,7-dihydro-5H-benzo[6,7]cyclohepta[1,2-c]pyridazin-3-yl)-N^3-((7S)-7-((bicyclo[2.2.1]hept-2-en-5-ylmethyl)amino)-6,7,8,9-tetrahydro-5H-benzo[7]annulene-2-yl)-1H-1,2,4-triazole-3,5-diamine] gave a pIC50 above 6.00.

Compound `CC(C)CCN[C@H]1CCc2ccc(Nc3nc(N)n(-c4cc5c(nn4)-c4ccccc4CCC5)n3)cc2CC1` [Compound 39, 1-(6,7-dihydro-5H-benzo[6,7]cyclohepta[1,2-c]pyridazin-3-yl)-N^3-((7S)-7-(3-methylbutylamino)-6,7,8,9-tetrahydro-5H-benzo[7]annulene-2-yl)-1H-1,2,4-triazole-3,5-diamine] had a negative logarithm of the IC50 (pIC50) above 6.00.

`CC(C)CCN(CCC(C)C)[C@H]1CCc2ccc(Nc3nc(N)n(-c4cc5c(nn4)-c4ccccc4CCC5)n3)cc2CC1` [Compound 40, 1-(6,7-dihydro-5H-benzo[6,7]cyclohepta[1,2-c]pyridazin-3-yl)-N^3-((7S)-7-(di(3-methylbutyl)amino)-6,7,8,9-tetrahydro-5H-benzo[7]annulene-2-yl)-1H-1,2,4-triazole-3,5-diamine]: the negative logarithm of the IC50 (pIC50) is 5.00 to 6.00.

For `CCC(CC)CN[C@H]1CCc2ccc(Nc3nc(N)n(-c4cc5c(nn4)-c4ccccc4CCC5)n3)cc2CC1` [Compound 41, 1-(6,7-dihydro-5H-benzo[6,7]cyclohepta[1,2-c]pyridazin-3-yl)-N^3-((7S)-7-(2-ethylbutylamino)-6,7,8,9-tetrahydro-5H-benzo[7]annulene-2-yl)-1H-1,2,4-triazole-3,5-diamine], the pIC50 was above 6.00.

As for `CC=CCN[C@H]1CCc2ccc(Nc3nc(N)n(-c4cc5c(nn4)-c4ccccc4CCC5)n3)cc2CC1` [Compound 42, 1-(6,7-dihydro-5H-benzo[6,7]cyclohepta[1,2-c]pyridazin-3-yl)-N^3-((7S)-7-(but-2-enylamino)-6,7,8,9-tetrahydro-5H-benzo[7]annulene-2-yl)-1H-1,2,4-triazole-3,5-diamine], the pIC50 is above 6.00.

For `CC=CCN(CCCC)[C@H]1CCc2ccc(Nc3nc(N)n(-c4cc5c(nn4)-c4ccccc4CCC5)n3)cc2CC1` [Compound 43, 1-(6,7-dihydro-5H-benzo[6,7]cyclohepta[1,2-c]pyridazin-3-yl)-N^3-((7S)-7-(butyl(but-2-enyl)amino)-6,7,8,9-tetrahydro-5H-benzo[7]annulene-2-yl)-1H-1,2,4-triazole-3,5-diamine], the negative-log IC50 (pIC50) was above 6.00.

As to `CC(C)(C)OC(=O)N[C@H]1CCc2ccc(Nc3nc(N)n(-c4cc5c(nn4)-c4cccnc4CCC5)n3)cc2CC1` [Compound 44], the pIC50 was below 4.70.

The same assay, now with this note: Hela cells, stimulated by Axl-antibody cross-linking, phospho-Akt chemiluminescence; Table 3, formula (II).
In the case of `Nc1nc(Nc2ccc(N3CCC(N4CCCC4)CC3)c(F)c2)nn1-c1cc2c(nn1)-c1cccnc1CCC2` [Compound 45, 1-(6,7-dihydro-5H-pyrido[2′,3′:6,7]cyclohepta[1,2-c]pyridazin-3-yl)-N^3-(3-fluoro-4-(4-(pyrrolidin-1-yl)piperidin-1-yl)phenyl)-1H-1,2,4-triazole-3,5-diamine], the pIC50 is below 4.70.
